According to patent US20240391931A1 (Bristol-Myers Squibb Company, priority 2021, published 2024):
Counter-ions that a name gives are not always drawn.

Key:
HER2YVMA [1] = biological target: T1, HER2YVMA (Homo sapiens, UniProt P04626, INS775YVMA); experiment: HER2 occupancy assay in Ba/F3-HER2YVMA cells; assay type: cell-based; parameters: expressed in transfected cells; host or cells: Ba/F3 (clones); lentiviral vector pCDH-CMV-MCS-EF1-Neo; conditions: concentration at which 50% of HER2 is irreversible bound, read-out: Ba/F3 YVMA HER2 Occ
T1 sequence (P04626 with tags, fused parts or gaps INS775YVMA): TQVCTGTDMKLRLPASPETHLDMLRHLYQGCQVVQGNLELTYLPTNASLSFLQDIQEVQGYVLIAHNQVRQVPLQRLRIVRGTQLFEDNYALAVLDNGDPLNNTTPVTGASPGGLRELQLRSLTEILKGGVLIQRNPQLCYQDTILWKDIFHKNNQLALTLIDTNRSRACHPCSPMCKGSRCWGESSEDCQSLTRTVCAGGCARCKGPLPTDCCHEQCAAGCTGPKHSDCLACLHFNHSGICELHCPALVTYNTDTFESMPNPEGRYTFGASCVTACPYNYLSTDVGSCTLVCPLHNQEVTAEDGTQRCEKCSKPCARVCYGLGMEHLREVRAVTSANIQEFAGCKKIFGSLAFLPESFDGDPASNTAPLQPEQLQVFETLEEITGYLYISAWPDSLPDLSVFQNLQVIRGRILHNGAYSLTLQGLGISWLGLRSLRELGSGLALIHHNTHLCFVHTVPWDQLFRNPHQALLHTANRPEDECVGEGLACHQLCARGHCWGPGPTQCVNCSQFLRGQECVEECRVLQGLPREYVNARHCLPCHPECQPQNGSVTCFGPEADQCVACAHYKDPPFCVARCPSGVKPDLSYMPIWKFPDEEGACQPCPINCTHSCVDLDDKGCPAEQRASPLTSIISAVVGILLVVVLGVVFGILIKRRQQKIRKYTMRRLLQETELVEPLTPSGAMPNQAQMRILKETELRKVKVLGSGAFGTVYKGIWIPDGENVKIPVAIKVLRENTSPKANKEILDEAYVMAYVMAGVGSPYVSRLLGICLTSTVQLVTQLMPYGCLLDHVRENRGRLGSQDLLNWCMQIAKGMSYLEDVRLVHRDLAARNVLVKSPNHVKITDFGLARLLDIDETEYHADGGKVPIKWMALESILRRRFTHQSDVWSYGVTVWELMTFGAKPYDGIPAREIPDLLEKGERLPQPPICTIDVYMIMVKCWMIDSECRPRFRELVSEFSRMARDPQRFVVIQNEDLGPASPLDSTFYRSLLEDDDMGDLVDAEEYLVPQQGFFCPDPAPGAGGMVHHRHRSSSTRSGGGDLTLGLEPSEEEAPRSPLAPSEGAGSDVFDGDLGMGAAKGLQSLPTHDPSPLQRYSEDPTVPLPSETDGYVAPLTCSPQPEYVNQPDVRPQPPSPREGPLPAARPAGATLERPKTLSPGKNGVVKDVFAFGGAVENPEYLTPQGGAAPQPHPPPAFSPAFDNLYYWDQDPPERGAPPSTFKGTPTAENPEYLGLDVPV
Protocol: In order to assess free HER2 protein, a biotinylated probe was utilized. BT474, N87, and Ba/F3-HER2YVMA cells were treated with test compound as described for HER2 signaling. After compound treatment, cells were washed three times with cold phosphate buffer saline (PBS, Life Technologies, Carlsbad, CA), and lysed in modified occupancy lysis buffer prepared with an irreversible biotinylated tool compound (1 μM) in 25 mM Tris pH 7.5, 150 mM NaCl, 1% Triton, and supplemented with cOmplete, EDTA-free Protease inhibitor cocktail (Roche), Phosphatase Inhibitor Cocktails 2 and 3 (Sigma-Aldrich), and 1 mM PMSF (Sigma-Aldrich). To determine % occupancy, lysates were loaded into duplicate plates of the phospho ([…])/total ErbB2 whole cell lysate MSD kit (Meso-Scale Discovery) and incubated overnight. Plates were washed and incubation with either HER2-sulfoTag (1:50, Meso Scale Discovery) or Strep-Sulfo Tag (1:1000, Meso Scale Discovery), for detection of […]. A standard curve of untreated cells in serial dilution was included in each plate to independently fit streptavidin (Free HER2) and total HER2 MSD signals; non-specific signal (BSA control spots) was subtracted from each well. Free HER2 was then normalized by total HER2 for each sample. The results are reported as % DMSO control. The normalized data was fitted using a sigmoidal curve analysis program (Graph Pad Prism version 6) with variable Hill slope to determine EC50 values. The results are provided in Table 4, under columns titled “BT474-HER2 Occ”, “N87-HER2 Occ”, and “Ba/F3 YVMA-HER2 Occ”. HER2 Occ is the concentration of test compound at which 50% of HER2 is irreversible bound.

HER2YVMA [2] = biological target: T1, HER2YVMA; experiment: HER2 signaling (pHER2) in Ba/F3-HER2YVMA cells; assay type: cell-based; parameters: expressed in transfected cells; host or cells: HEK293 (pool), Ba/F3 (clones), BEAS2B (clones); lentiviral vector pCDH-CMV-MCS-EF1-Neo; conditions: read-out: Ba/F3 YVMA pHER2 EC50
Protocol: Cell culture, plasmid cloning, and lentiviral transduction were carried out according to standard procedures. The Human HER2 cDNA construct in pCMV6-Entry for the HER2 wildtype (WT) expression was obtained from Origene. The HER2 cDNA including the 12-nucleotide insertion corresponding to YVMA insertion (HER2YVMA) was codon optimized, synthesized and cloned by GenScript (Piscataway, NJ) in pcDNA3.1. The lentiviral constructs expressing HER2YVMA and HER2 WT were sub-cloned using PCR at System Biosciences (SBI, Mountainview, CA) into lentiviral vectors pCDH-CMV-MCS-EF1-Neo and lentiviral particles were generated.
Engineered lines expressing HER2YVMA and HER2 WT were prepared in HEK293 (human embryonic kidney cells), Ba/F3 (Interleukin 3 (IL3)-dependent murine pro B cell line), and BEAS2B (primary immortalized human bronchial epithelial cell line). Ba/F3, BEAS2B, and HEK293 cells were obtained from the American Type Culture Collection (ATCC, Manassas, VA). Parental Ba/F3 cells were grown in suspension in complete RPMI 1640 supplemented with 10% FBS and 1% P/S and 10 ng/ml interleukin 3 (IL3, Sigma-Aldrich). Hek293 and BEAS2B cells were grown as monolayers in DMEM supplemented with 10% FBS and 1% P/S. All cells were maintained and propagated in a humidified 5% CO2 incubator at 37° C.
To generate Ba/F3, BEAS2B, and Hek-293 cells engineered with lentivirus to express HER2 WT or HER2YVMA, the cells were transduced with lentiviruses at multiplicity of infection (MOI) of 1 or 10; transduced cells were selected and maintained with G418 ([…]) (Geneticin, Life Technologies, Carlsbad, CA). Ba/F3 engineered cells were subjected to gradual withdrawal of interleukin 3 (IL-3, Sigma-Aldrich). After selection, IL3 independent Ba/F3 HER2YVMA, and BEAS2B HER2YVMA cells were cloned by limiting dilution. Hek293 HER2YVMA cells were used as pool. HER2 and phospho HER2 levels were confirmed by flow cytometery and immunoassay (MSD, Meso-Scale Discovery, Rockville, Maryland).
Compound treatment of Ba/F3-HER2YVMA suspension cells was done as described with minor modifications. Cells were plated at 300000 cell/well in 96-well round bottom plates in RPMI supplemented with 2% FBS and immediately dosed with compounds serially diluted in media without serum for a final concentration of 1% FBS, 0.1% DMSO. Cells were incubate with compounds for 1.5 hr, and plates were spun at 1500 rpm for 5 mins to remove media without disturbing pellet. Cells were lysed as described above.
HER2 signaling was evaluated using phospho (Tyr1248)/total ErbB2 whole cell lysate MSD plates (Meso-Scale Discovery, Gaithersburg, MD). The phospho HER2 signal was normalized to total HER2 for each sample; results are reported as % DMSO control. The normalized data was fitted using a sigmoidal curve analysis program (Graph Pad Prism version 6) with variable Hill slope to determine EC50 values.
The HER2 signaling results are provided in Table 4, under columns titled “BT474-pHER2 EC50”, “N87-pHER2 EC50”, and “NCI-H1781-pHER2 EC50”. Hek293-HER2YVMA ins fall under the heading “HEKYVMA-pHER2 EC50”, Ba/F3 HER2YVMA fall under the heading “Ba/F3 YVMA-pHER2 EC50” and BEAS2B-HER2YVMA fall under the heading “BEAS2B YVMA-pHER2 EC50”.

Row | Structure (SMILES) | EC50 (HER2YVMA [1]) [nM] | EC50 (HER2YVMA [2]) [nM]
1 | Cc1ccc(Oc2ccc(Nc3ncnc4sc5c(c34)CCN(C(=O)/C=C/CN(C)C)C5)cc2C)cn1 [Compound 8, (E)-4-(Dimethylamino)-1-(4-((3-methyl-4-((6-methylpyridin-3-yl)oxy)phenyl)amino)-5,6-dihydropyrido[4′,3′:4,5]thieno[2,3-d]pyrimidin-7(8H)-yl)but-2-en-1-one] | < 100 | < 100
2 | Cc1cc(Nc2ncnc3sc4c(c23)CCN(C(=O)/C=C/CN2CCOCC2)C4)ccc1Oc1ccc2ncnn2c1 [Compound 12] |  | < 100
3 | Cc1ccc(Oc2ccc(Nc3ncnc4sc5c(c34)CCN(C(=O)/C=C/CN3CC4CCC(C4)C3)C5)cc2C)cn1 [Compound 16, (E)-4-(3-azabicyclo[3.2.1]octan-3-yl)-1-(4-((3-methyl-4-((6-methylpyridin-3-yl)oxy)phenyl)amino)-5,8-dihydropyrido[4′,3′:4,5]thieno[2,3-d]pyrimidin-7(6H)-yl)but-2-en-1-one benzenesulfonate salt] | < 100 | < 100
4 | Cc1ccc(Oc2ccc(Nc3ncnc4sc5c(c34)CCN(C(=O)/C=C/CN3CCOCC3)C5)cc2C)cn1 [Compound 17, (E)-1-(4-((3-Methyl-4-((6-methylpyridin-3-yl)oxy)phenyl)amino)-5,6-dihydropyrido[4′,3′:4,5]thieno[2,3-d]pyrimidin-7(8H)-yl)-4-morpholinobut-2-en-1-one] | < 100 | < 100
